Data on one molecule can be found in publication PMC6843832, “Synthesis of Novel Analogs of Thieno[2,3-d] Pyrimidin-4(3H)-ones as Selective Inhibitors of Cancer Cell Growth” (Biomolecules, 2019).

Data set [1] deals with Bax. Briefly: Western blotting, Bax. It is filed as cell-based, human. As to conditions: A549 cells, 0-10 μM, 72 h, western blot. The protocol:
(§1) Total protein samples were extracted from A549 cells. cells were treated with different concentrations of compounds for 72 h, then the cells were collected, homogenized in 100 µL of ice-cold lysis buffer containing 2% SDS (sodium dodecyl sulfate), 10% DTT (dithiothreitol), 10% glycerin, 0.1% BPB (bromophenol blue) and 50mM Tris buffer (pH 6.8). After cell lyses were boiled for 30 min at 100 °C, samples were resolved on 12% SDS-PAGE (polyacrylamide gel) and then transferred to nitrocellulose (NC) membranes. Then the membranes were blocked with 5% skim milk at room temperature for 1 h. After incubation, the membranes were probed by primary antibodies for β-actin, Bax (BCL2-associated X protein) and Bcl-2 (B-cell lymphoma-2) at 4 °C overnight. After the blots were washed in TBST (Tris-base solution-Tween 20), membranes were incubated with HRP (horseradish peroxidase) -conjugated IgG secondary antibodies for 1 h at 37 °C. Finally, a Chemi-Doc image analyzer was used to determine protein expression levels by analyzing the signals captured on the NC membranes.

The subject of data set [2] is MCF-7 cells. Kind of data set: MTT assay, MCF-7 cells. In kind it is cell-based. As to conditions: MCF7, human breast cancer cells, 72 h, read-out: Cytotoxic activity (IC50) MCF-7. The protocol:
(§2) Primary human liver HL-7702 cells were purchased from SIBS (Shanghai Institutes for Biological Sciences, Shanghai, China) while MCF-7, A549, PC-9 and PC-3 cells were from ATCC (American Type Culture Collection, Rockville, MD, USA). HL-7702, PC-9 and A549 cells were incubated with Roswell Park Memorial Institute (RPMI) 1640 medium and MCF-7 were cultured in Dulbecco’s Modified Eagle’s Medium (DMEM) supplemented with 10% heat-inactivated fetal bovine serum (FBS) and 1% antibiotics (penicillin and streptomycin). PC-3, a human prostate adenocarcinoma cell, was maintained in Ham’s F-12 Medium supplemented with 10% FBS, 1% penicillin/streptomycin and 1% glutamine. All cells were cultured at 37 °C in an incubator containing 5% CO2. The cell viability was determined by using the MTT (methyl thiazolyl tetrazolium bromide) assay. Briefly, cells were seeded in 96-well plates (4 × 10^3 cells/well) overnight and exposed to the synthesized compounds with various concentrations. Camptothecin and dimethyl sulfoxide (DMSO) served as a positive control and a negative control respectively. After 72 h of incubation, 20 μL of MTT (5 mg/mL in phosphate buffer saline (PBS)) were added into each well. Dissolved yellowish MTT is converted to an insoluble purple formazan during incubation (4 h). In order to dissolve the formazan crystals, 100 μL of lysis solution (10% SDS (sodium dodecyl sulfate)-5% isobutyl alcohol-0.01M HCl) was added into per well. Finally, the optical density (OD) of solution in the plates was measured using a microplate reader at 570 nm after dissolving overnight. Cell viability was calculated by using the following formula: […].
(In general: Tetrazolium assays rely on reduction of a dye to a coloured formazan, in cell work by metabolically active cells.)

Data set [3] relates to caspase-3. Kind of data set: Caspase-3 activity assay. Conditions: A549 cells, 0, 1, 5 μM, 48 h. In kind it is cell-based, human. The protocol:
Briefly, A549 cells were cultured at 2 × 10^5 cells/well in 6-well plates and incubated with different concentrations of compounds (0, 1, 5 µM) for 48 h. At the end of the treatment, cells were harvested and lysed by the addition of lysis buffer from the caspase-3 assay kit. Aliquots of cell lysate were added to 96-well plates and the supernatant of cell lysates were mixed with buffer containing the above substrate peptides for 2 h at 37 °C. The absorbance in each well was measured at 405 nm using a microplate reader.

For data set [4], the system named is PC-9 cells. Kind of data set: MTT assay, PC-9 cells. As to conditions: human non-small cell lung cancer cells, 72 h, read-out: Cytotoxic activity (IC50) PC-9. In kind it is cell-based. The procedure: as §2
Data set [5] can be described thus: MTT assay, HL-7702 cells. In kind it is cell-based, human. As to conditions: HL-7702 cells (normal liver cells); normal human liver cells, MTT, 72 h; read-out: Cytotoxic activity (IC50) HL-7702. The procedure: as §2
In data set [6] the test system is HL-7702 cells. Kind of data set: MTT assay, HL-7702 cells. In kind it is cell-based, human. Conditions: HL-7702, MTT. The procedure: as §2
The subject of data set [7] is Bcl-2. Briefly: Western blotting, Bcl-2. In kind it is cell-based, human. As to conditions: A549 cells, 0-10 μM, 72 h, western blot. The procedure:
as §1
Background: In western blotting, separated proteins are transferred to a membrane and probed.

For data set [8], the system named is PC-3 cells. Briefly: MTT assay, PC-3 cells. In kind it is cell-based. Conditions: human prostate cancer cells, 72 h, read-out: Cytotoxic activity (IC50) PC-3. The protocol: as §2
Data set [9] deals with A549 cells. Kind of data set: MTT assay, A549 cells. As to conditions: Homo sapiens, A549, 72 h, human non-small cell lung cancer cells, read-out: Cytotoxic activity (IC50) A549. It is filed as cell-based. The protocol:
as §2

Data set [10] has as its system A549 cells. Briefly: Hoechst 33258 staining (apoptosis). In kind it is cell-based, human. As to conditions: 72 h. The procedure:
For Hoechst staining, A549 cells were seeded in 6-well plates (8 × 10^4 cells/well) and allowed to adhere overnight. Compounds at a final concentration of 10, 5 and 1 µM were used to treat cells in the exponential growth phase for 72 h. Following this, the staining solution was added to the well plates and held at room temperature for 10 min. Afterwards, Hoechst 33258 was added to dye the cells for 10 min at room temperature in the dark. After washing two times with PBS, the treated cells were photographed under a semi-electrical fluorescence microscope (Olympus BX53, Olympus, Tokyo, Japan), to capture images of the stained nuclei from each well from randomly selected regions.

For data set [11], the system named is A549 cells. Kind of data set: Colony formation assay. It is filed as cell-based. As to conditions: Homo sapiens, read-out: inhibition rate of colony formation. The protocol: The colony formation assay was executed to assess the colony forming ability of cancer cells treated by compounds. After being trypsinized and counted, the cells were seeded again on a 6-well plate with 4000 cells/well. Subsequently, cells were incubated at 37 °C in 5% CO2 overnight with medium. Afterwards, the cells were being treated with drugs (1 μM, 10 μM) and camptothecin (0.1 μM) for 10 days. Then, fresh PBS (1 mL/well) was added to wash the cells twice, before fixing with the stationary solution (10% acetic acid- 10% methanol- 80% dd H2O, 1 mL/well) at room temperature for 30 min. After that, 1% crystal violet was used to stain the cells. The cell viability was evaluated by the number of purple colonies.

Consider `O=c1c2c3c(sc2nc(-c2ccccc2)n1CCc1ccc(O)cc1)CCCCC3` [Compound 15], for which the “Bax protein expression level” value in data set [1] is on record as “increase of Bax level”. For the same molecule, the IC50 (as a rule, the concentration at which inhibition is half-maximal) is 17.3 ± 0.2 µM in data set [2], greater than 100 µM in [4], 47.5 ± 3.39 µM in data set [8] and 0.94 ± 0.01 µM in data set [9]. For the same molecule, the caspase-3 activity result in data set [3] is given as “accumulation of caspase-3 in the cytosol”. Also, the IC50 at 72 h in data set [5] was greater than 100 µM. Further, the “toxicity to normal human liver cells” value in data set [6] is listed as “no toxicity to normal human liver cells”. Besides, the “Bcl-2 protein expression level” value in data set [7] is “reduction of Bcl-2 level”. Besides, in data set [7] (compared to control), the Bcl-2/Bax ratio entry is reported as “significant decrease in the proportion of Bcl-2/Bax”. The “nuclear morphology, Hoechst 33258 staining” value was “brightly stained nuclei due to chromatin condensation” in [10] (1 μM); “cell membrane rupture and contraction were observed” in data set [10] (5 and 10 μM). Besides, the inhibition (in general, the change of the read-out against control, counted positive when it falls) at 1 µM in data set [11] was 56%.
